Results: PubChem BioAssay AID977609 (Broad Institute, 2014)
Activity calls are given as the source filed them.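 Rule for the calls: active = a rise in signal, meaning less cAMP, whose fitted curve reaches 40% at or below the top valid tested dose; inconclusive = flat fit between 30% and 70%, or a poor fit; inactive = the rest.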

What follows are compounds tested on Drosophila melanogaster bursicon receptor LGR2 (rickets) (assay: LGR2 antagonists blocking bursicon cAMP, dose response, orthogonal assay for LGR2 antagonist project, cell-based, HEK293 transfected, TR-FRET cAMP, dry powder (AID 977609)). Details: bursicon-stimulated cAMP, Lance TR-FRET.

SMILES	AC40
C[C@@H]1CN([C@H](C)CO)C(=O)c2cc(NC(=O)C3CCCCC3)ccc2O[C@@H](C)CCCCO[C@H]1CN(C)C(=O)Nc1cccc2ccccc12	> 50000 nM (inactive)
C[C@H](CO)N1C[C@H](C)[C@H](CN(C)C(=O)Nc2ccc(F)cc2)OCCCC[C@H](C)Oc2ccc(NC(=O)C3CC3)cc2C1=O	49600 nM
COc1ccc(NC(=O)N(C)C[C@@H]2OCCCC[C@H](C)Oc3ccc(NC(=O)C4CCCCC4)cc3C(=O)N([C@H](C)CO)C[C@@H]2C)cc1	1480 nM
C[C@@H]1CCCCO[C@H](CN(C)C(=O)Nc2cccc3ccccc23)[C@@H](C)CN([C@@H](C)CO)C(=O)c2cc(NC(=O)C3CCCCC3)ccc2O1	> 50000 nM (inactive)
CC(=O)Nc1ccc2c(c1)C(=O)N([C@H](C)CO)C[C@H](C)[C@H](CN(C)C(=O)Nc1ccc(F)cc1)OCCCC[C@H](C)O2	> 50000 nM (inactive)
C[C@H]1CCCCO[C@@H](CN(C)C(=O)Nc2ccccc2)[C@@H](C)CN([C@@H](C)CO)C(=O)c2cc(NC(=O)NC3CCCCC3)ccc2O1	3580 nM
C[C@H](CO)N1C[C@H](C)[C@H](CN(C)C(=O)Nc2ccc3c(c2)OCO3)OCCCC[C@H](C)Oc2ccc(NC(=O)NC3CCCCC3)cc2C1=O	5490 nM
C[C@H](CO)N1C[C@H](C)[C@H](CN(C)C(=O)Nc2cccc3ccccc23)OCCCC[C@H](C)Oc2ccc(NC(=O)c3ccccc3)cc2C1=O	2490 nM
C[C@@H]1CCCCO[C@H](CN(C)C(=O)Nc2cccc3ccccc23)[C@H](C)CN([C@H](C)CO)C(=O)c2cc(NC(=O)C3CCCCC3)ccc2O1	> 50000 nM (inactive)
C[C@H](CO)N1C[C@H](C)[C@H](CN(C)C(=O)Nc2ccc(F)cc2)OCCCC[C@H](C)Oc2ccc(NC(=O)NC3CCCCC3)cc2C1=O	3910 nM
C[C@H](CO)N1C[C@H](C)[C@H](CN(C)C(=O)Nc2cccc(F)c2)OCCCC[C@H](C)Oc2ccc(NC(=O)C3CCCCC3)cc2C1=O	858 nM
C[C@@H]1CCCCO[C@@H](CN(C)C(=O)Nc2cccc3ccccc23)[C@H](C)CN([C@@H](C)CO)C(=O)c2cc(NC(=O)C3CCCCC3)ccc2O1	> 50000 nM (inactive)
C[C@H](CO)N1C[C@H](C)[C@H](CN(C)C(=O)Nc2ccc3c(c2)OCO3)OCCCC[C@H](C)Oc2ccc(NC(=O)C3CCCCC3)cc2C1=O	837 nM
C[C@H]1CCCCO[C@@H](CN(C)C(=O)Nc2cccc3ccccc23)[C@@H](C)CN([C@@H](C)CO)C(=O)c2cc(NC(=O)C3CCCCC3)ccc2O1	353 nM
C[C@H]1CCCCO[C@@H](CN(C)C(=O)Nc2ccc3c(c2)OCO3)[C@@H](C)CN([C@@H](C)CO)C(=O)c2cc(NC(=O)NC3CCCCC3)ccc2O1	3790 nM
C[C@H](CO)N1C[C@H](C)[C@H](CN(C)C(=O)Nc2ccc(Cl)cc2)OCCCC[C@H](C)Oc2ccc(NC(=O)C3CCCCC3)cc2C1=O	853 nM
C[C@H](CO)N1C[C@H](C)[C@H](CN(C)C(=O)Nc2ccccc2)OCCCC[C@H](C)Oc2ccc(NC(=O)NC3CCCCC3)cc2C1=O	3220 nM
C[C@H](CO)N1C[C@H](C)[C@H](CN(C)C(=O)Nc2ccc(F)cc2)OCCCC[C@H](C)Oc2ccc(NC(=O)Nc3ccccc3)cc2C1=O	2890 nM
C[C@@H]1CN([C@@H](C)CO)C(=O)c2cc(NC(=O)C3CCCCC3)ccc2O[C@@H](C)CCCCO[C@H]1CN(C)C(=O)Nc1cccc2ccccc12	> 50000 nM (inactive)
C[C@H](CO)N1C[C@H](C)[C@H](CN(C)C(=O)Nc2ccccc2)OCCCC[C@H](C)Oc2ccc(NC(=O)CCC(F)(F)F)cc2C1=O	1530 nM
C[C@H](CO)N1C[C@H](C)[C@H](CN(C)C(=O)Nc2ccc(F)cc2)OCCCC[C@H](C)Oc2ccc(NC(=O)Nc3ccc(F)cc3)cc2C1=O	4690 nM
C[C@H](CO)N1C[C@H](C)[C@@H](CN(C)C(=O)Nc2cccc3ccccc23)OCCCC[C@H](C)Oc2ccc(NC(=O)C3CCCCC3)cc2C1=O	> 50000 nM (inactive)
C[C@H](CO)N1C[C@H](C)[C@H](CN(C)C(=O)Nc2cccc3ccccc23)OCCCC[C@H](C)Oc2ccc(NC(=O)NC3CCCCC3)cc2C1=O	1650 nM
C[C@H]1CCCCO[C@@H](CN(C)S(=O)(=O)c2ccc(Cl)cc2)[C@@H](C)CN([C@@H](C)CO)C(=O)c2cc(NC(=O)NC3CCCCC3)ccc2O1	> 50000 nM (inactive)

SMILES	AC40
C[C@H](CO)N1C[C@H](C)[C@H](CN(C)C(=O)Nc2ccccc2F)OCCCC[C@H](C)Oc2ccc(NC(=O)C3CCCCC3)cc2C1=O	515 nM
C[C@H](CO)N1C[C@H](C)[C@H](CN(C)C(=O)Nc2cccc3ccccc23)OCCCC[C@H](C)Oc2ccc(NC(=O)CCC(F)(F)F)cc2C1=O	1950 nM
C[C@H](CO)N1C[C@H](C)[C@H](CN(C)C(=O)Nc2cccc3ccccc23)OCCCC[C@H](C)Oc2ccc(NC(=O)C3CCCCC3)cc2C1=O	129 nM
C[C@H](CO)N1C[C@H](C)[C@H](CN(C)C(=O)Nc2ccccc2)OCCCC[C@H](C)Oc2ccc(NC(=O)Nc3ccc4c(c3)OCO4)cc2C1=O	7540 nM
C[C@@H]1CCCCO[C@H](CN(C)C(=O)Nc2cccc3ccccc23)[C@@H](C)CN([C@H](C)CO)C(=O)c2cc(NC(=O)C3CCCCC3)ccc2O1	> 50000 nM (inactive)
C[C@H](CO)N1C[C@H](C)[C@H](CN(C)C(=O)Nc2ccc(C(F)(F)F)cc2)OCCCC[C@H](C)Oc2ccc(NC(=O)NC3CCCCC3)cc2C1=O	2710 nM
C[C@H]1CCCCO[C@H](CN(C)C(=O)Nc2cccc3ccccc23)[C@@H](C)CN([C@@H](C)CO)C(=O)c2cc(NC(=O)C3CCCCC3)ccc2O1	> 50000 nM (inactive)
C[C@H](CO)N1C[C@H](C)[C@H](CN(C)C(=O)Nc2ccccc2)OCCCC[C@H](C)Oc2ccc(NC(=O)C3CCCCC3)cc2C1=O	736 nM
C[C@H](CO)N1C[C@H](C)[C@H](CN(C)C(=O)Nc2ccc3ccccc3c2)OCCCC[C@H](C)Oc2ccc(NC(=O)C3CCCCC3)cc2C1=O	219 nM
C[C@H](CO)N1C[C@H](C)[C@H](CN(C)C(=O)Nc2ccc(F)cc2)OCCCC[C@H](C)Oc2ccc(NC(=O)C3CCCCC3)cc2C1=O	501 nM
C[C@@H]1CCCCO[C@@H](CN(C)C(=O)Nc2cccc3ccccc23)[C@@H](C)CN([C@@H](C)CO)C(=O)c2cc(NC(=O)C3CCCCC3)ccc2O1	> 50000 nM (inactive)
C[C@H](CO)N1C[C@H](C)[C@H](CN(C)C(=O)Nc2ccc(F)cc2)OCCCC[C@H](C)Oc2ccc(NC(=O)C3CCCC3)cc2C1=O	1750 nM
C[C@H](CO)N1C[C@H](C)[C@H](CN(C)C(=O)Nc2ccccc2)OCCCC[C@H](C)Oc2ccc(NC(=O)Nc3ccccc3)cc2C1=O	5860 nM
C[C@H](CO)N1C[C@H](C)[C@H](CN(C)C(=O)Nc2ccc(F)cc2)OCCCC[C@H](C)Oc2ccc(NC(=O)C3CCOCC3)cc2C1=O	25000 nM
C[C@H]1CCCCO[C@@H](CN(C)C(=O)Nc2ccc(F)cc2)[C@@H](C)CN([C@@H](C)CO)C(=O)c2cc(NC(=O)C3CCCCC3)ccc2O1	1380 nM
C[C@H](CO)N1C[C@H](C)[C@H](CN(C)C(=O)Nc2ccc(F)cc2)OCCCC[C@H](C)Oc2ccc(NC(=O)C3CCC3)cc2C1=O	4980 nM
COc1ccc(S(=O)(=O)N(C)C[C@@H]2OCCCC[C@H](C)Oc3ccc(NS(=O)(=O)c4ccc(F)cc4)cc3C(=O)N([C@@H](C)CO)C[C@@H]2C)cc1	> 50000 nM (inactive)
Cc1ccc(NC(=O)N(C)C[C@@H]2OCCCC[C@H](C)Oc3ccc(NC(=O)C4CCCCC4)cc3C(=O)N([C@H](C)CO)C[C@@H]2C)cc1	1050 nM
C[C@H](CO)N1C[C@H](C)[C@H](CN(C)C(=O)Nc2ccc(C(F)(F)F)cc2)OCCCC[C@H](C)Oc2ccc(NC(=O)CCC(F)(F)F)cc2C1=O	949 nM
C[C@H]1CCCCO[C@@H](CN(C)C(=O)Nc2ccc(C(F)(F)F)cc2)[C@@H](C)CN([C@@H](C)CO)C(=O)c2cc(NC(=O)CCC(F)(F)F)ccc2O1	2160 nM
C[C@H](CO)N1C[C@H](C)[C@H](CN(C)C(=O)Nc2ccc(F)cc2)OCCCC[C@H](C)Oc2ccc(NC(=O)C3CCCCCC3)cc2C1=O	248 nM
C[C@@H]1CN([C@H](C)CO)C(=O)c2cc(NC(=O)C3CCCCC3)ccc2O[C@@H](C)CCCCO[C@@H]1CN(C)C(=O)Nc1cccc2ccccc12	> 50000 nM (inactive)
COc1ccc(NC(=O)N(C)C[C@@H]2OCCCC[C@H](C)Oc3ccc(NC(=O)NC4CCCCC4)cc3C(=O)N([C@H](C)CO)C[C@@H]2C)cc1	2040 nM

Same assay, conditions: bursicon-stimulated cAMP, Lance TR-FRET, at 50 µM (top of the series)

SMILES	inhibition of cAMP
COc1ccc(S(=O)(=O)N(C)C[C@@H]2OCCCC[C@H](C)Oc3ccc(NS(=O)(=O)c4ccc(Cl)cc4)cc3C(=O)N([C@@H](C)CO)C[C@@H]2C)cc1	6.28% (inactive)
C[C@@H]1CCCCO[C@@H](CN(C)C(=O)Nc2cccc3ccccc23)[C@H](C)CN([C@H](C)CO)C(=O)c2cc(NC(=O)C3CCCCC3)ccc2O1	-5.85% (inactive)
C[C@@H]1CN([C@@H](C)CO)C(=O)c2cc(NC(=O)C3CCCCC3)ccc2O[C@@H](C)CCCCO[C@@H]1CN(C)C(=O)Nc1cccc2ccccc12	10.1% (inactive)
C[C@@H]1CCCCO[C@@H](CN(C)C(=O)Nc2cccc3ccccc23)[C@@H](C)CN([C@H](C)CO)C(=O)c2cc(NC(=O)C3CCCCC3)ccc2O1	-2.89% (inactive)
CC(C)(C)c1ccc(-c2nc(-c3ccncc3)no2)cc1	9.18% (inactive)
C[C@@H]1CCCCO[C@H](CN(C)C(=O)Nc2cccc3ccccc23)[C@H](C)CN([C@@H](C)CO)C(=O)c2cc(NC(=O)C3CCCCC3)ccc2O1	16% (inactive)
